The test system of assay [1] is CB1 M6.55A mutation. Particulars: M6.55 to alanine; cited from earlier work.
For assay [2], the system named is CB1 M6.55A mutation. The assay is described as follows: Published binding data, M6.55A mutation. Particulars: M6.55 to alanine.
The subject of assay [3] is CB1 W5.43 mutated to alanine. As to conditions: W5.43 to alanine; cited from earlier work.
The test system of assay [4] is CB1 K3.28 mutated to alanine. As to conditions: K3.28 to alanine; cited from earlier work.

Each structure is given as a SMILES string.

On to `Cc1c(C(=O)NN2CCCCC2)nn(-c2ccc(Cl)cc2Cl)c1-c1ccc(Cl)cc1` [rimonabant, N-(Piperidin-1-yl)-5-(4-Chlorophenyl)-1-(2,4-Dichlorophenyl)-4-Methyl-1H -Pyrazole-3-Carboxamide], for which, in assay [1], the “decrease in binding affinity upon mutation” value is reported as 3 fold. Further, the “decrease in binding affinity upon mutation, as energy” value in assay [2] is on record as 0.65 kcal/mol. Also, the “decrease in experimental binding affinity upon mutation” value in assay [3] was greater than 1000 fold; in assay [4] it was 17.2 fold.

The values above are taken from PMC4863456 (Journal of Chemical Information and Modeling, 2015).
